Data on one compound can be found in patent US20230227447A1, “BENZYLAMINE DERIVATIVES AS DDRS INHIBITORS” (CHIESI FARMACEUTICI S.P.A., priority 2020, published 2023).

SMILES strings stand for the structures. Where only a bound is given, the exact number is not on record here.

Test [1] has as its target T1, DDR2 (Homo sapiens, UniProt Q16832).
T1 sequence (Q16832 22-855): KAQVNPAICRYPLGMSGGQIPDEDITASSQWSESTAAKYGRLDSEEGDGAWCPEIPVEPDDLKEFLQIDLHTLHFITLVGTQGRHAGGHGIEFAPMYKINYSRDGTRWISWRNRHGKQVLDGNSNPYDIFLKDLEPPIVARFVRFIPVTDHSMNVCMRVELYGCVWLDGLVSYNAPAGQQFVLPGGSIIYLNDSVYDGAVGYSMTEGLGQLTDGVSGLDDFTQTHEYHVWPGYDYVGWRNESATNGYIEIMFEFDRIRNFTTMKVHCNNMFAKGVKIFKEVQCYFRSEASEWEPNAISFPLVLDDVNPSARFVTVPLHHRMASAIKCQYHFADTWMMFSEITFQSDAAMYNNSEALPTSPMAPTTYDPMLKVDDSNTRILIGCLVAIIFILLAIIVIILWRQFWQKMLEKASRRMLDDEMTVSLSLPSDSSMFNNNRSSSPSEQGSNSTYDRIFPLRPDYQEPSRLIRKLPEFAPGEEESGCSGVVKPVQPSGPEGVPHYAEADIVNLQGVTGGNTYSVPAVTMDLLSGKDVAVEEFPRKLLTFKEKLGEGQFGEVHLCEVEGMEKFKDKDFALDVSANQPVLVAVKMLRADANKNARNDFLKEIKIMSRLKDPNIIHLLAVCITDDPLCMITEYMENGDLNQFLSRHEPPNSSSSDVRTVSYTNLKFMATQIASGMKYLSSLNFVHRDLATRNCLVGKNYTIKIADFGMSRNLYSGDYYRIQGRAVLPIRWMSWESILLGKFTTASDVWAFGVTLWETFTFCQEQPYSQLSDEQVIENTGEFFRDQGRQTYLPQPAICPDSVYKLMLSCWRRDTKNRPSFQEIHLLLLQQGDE
The experiment in a line: DDR2 binding assay (LanthaScreen Europium Kinase Binding assay). The arrangement: purchased Life Technologies. The note with it: 5 nM DDR2, 10 nM Kinase Tracer 178, 1 hour at room temperature; Ki from IC50 by Cheng-Prusoff. As to the method: (§1) DDR1 and DDR2 binding assays were performed using Life Technologies LanthaScreen™ Europium Kinase Binding assay. The compounds were incubated with 5 nM DDR1 (Carna Biosciences) or 5 nM DDR2 (Life Technologies) for 1 hour at room temperature in white 384-well OptiPlate (PerkinElmer), containing 20 nM or 10 nM Kinase Tracer 178 respectively and 2 nM Europium labelled anti-GST antibody (Life Technologies) in assay buffer (50 mM HEPES pH 7.5, 10 mM MgCl2, 1 mM EGTA and 0.01% BRIJ35).
(§2) The ratio of fluorescence emission 665 nm/615 nm after excitation at 340 nm was obtained using the Tecan Spark 20M plate reader. IC50 values were determined in GraphPad Prism 7.0 software, using 4 parameter model: log(inhibitor) vs. response. IC50 values were converted in Ki using the Cheng-Prusoff equation (Ki=IC50/(1+[Tracer]/Kd).

The target in test [2] is T2, DDR1 (Homo sapiens, UniProt Q08345). The experiment in a line: DDR1 binding assay (LanthaScreen Europium Kinase Binding assay). Further details: purchased Carna Biosciences. The note with it: 5 nM DDR1, 20 nM Kinase Tracer 178, 1 hour at room temperature; Ki from IC50 by Cheng-Prusoff. As to the method: as §1, §2
T2 sequence (Q08345 19-913): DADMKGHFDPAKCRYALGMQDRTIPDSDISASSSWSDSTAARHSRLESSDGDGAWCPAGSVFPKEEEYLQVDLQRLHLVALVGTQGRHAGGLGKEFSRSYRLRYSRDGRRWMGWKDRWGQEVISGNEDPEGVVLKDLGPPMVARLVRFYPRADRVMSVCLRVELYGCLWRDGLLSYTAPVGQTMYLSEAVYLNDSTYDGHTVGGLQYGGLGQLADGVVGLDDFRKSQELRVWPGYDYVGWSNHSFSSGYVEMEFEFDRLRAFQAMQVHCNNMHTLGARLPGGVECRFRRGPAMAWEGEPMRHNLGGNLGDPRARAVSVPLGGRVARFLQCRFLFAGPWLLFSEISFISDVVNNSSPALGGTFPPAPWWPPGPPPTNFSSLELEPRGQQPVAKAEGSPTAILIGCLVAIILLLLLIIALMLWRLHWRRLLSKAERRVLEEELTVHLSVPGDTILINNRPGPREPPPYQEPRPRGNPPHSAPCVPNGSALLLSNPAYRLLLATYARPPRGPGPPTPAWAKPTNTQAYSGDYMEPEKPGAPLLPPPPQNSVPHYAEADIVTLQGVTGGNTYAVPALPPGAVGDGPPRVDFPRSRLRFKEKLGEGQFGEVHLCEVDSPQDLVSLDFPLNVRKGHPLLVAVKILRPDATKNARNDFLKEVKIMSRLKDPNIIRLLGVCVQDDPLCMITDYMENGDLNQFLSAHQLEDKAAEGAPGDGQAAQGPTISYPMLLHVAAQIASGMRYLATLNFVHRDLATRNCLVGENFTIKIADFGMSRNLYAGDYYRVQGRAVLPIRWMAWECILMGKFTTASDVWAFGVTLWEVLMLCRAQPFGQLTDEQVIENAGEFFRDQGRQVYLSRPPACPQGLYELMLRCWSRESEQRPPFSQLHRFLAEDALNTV
Test [3] concerns the target T1, DDR2. The experiment in a line: DDR2 cell based assay (phospho-ELISA in HEK293T-DDR2 recombinant cells). The arrangement: expressed in transfected cells; host or cells: HEK293T-DDR2 recombinant cells. Particulars: bovine Type II Collagen 50 μg/ml. As to the method: The inhibition of DDR2 phosphorylation by compounds was evaluated in HEK293T-DDR2 recombinant cells by phospho-ELISA assay. Briefly, HEK293T-DDR2 cells were seeded in poly-D-lysine-coated 24-well plates at a density of 250.000 cells/well and incubated for 1.5 hours at 37° C. and 5% CO2 in DMEM+10% FBS. After that, the medium was changed to serum-free DMEM and cells were incubated for 3 hours. Then. test compounds were added at different concentrations 30 minutes before stimulation with bovine Type II Collagen at 50 μg/ml for further 3 hours. For DDR2 phospho-ELISA assay (DuoSet IC Human Phospho-DDR2; R&D Systems), protein extracts were obtained by adding 60 μl/well of lysis buffer prepared according to the manufacturer's instructions. Protein concentration in the samples was determined by BCA assay and the levels of phospho-DDR2 were determined following R&D Systems indications. Raw data were normalized to maximal inhibition control (0% for normalization) and positive control (100% for normalization; cells treated with […] collagen II) and IC50 parameters were calculated in GraphPad Prism 8.0 software, using sigmoidal dose-response curve fitting with variable slope.

Test [4] has as its target T2, DDR1. Description: DDR1 cell based assay (PathHunter U2OS DDR1 assay). The arrangement: host or cells: U2OS-DDR1. The note with it: U2OS-DDR1 cells, bovine Type II Collagen 20 μg/ml, luminescence. As to the method: The inhibition of DDR1 receptor activation by compounds was evaluated by PathHunter® U2OS DDR1 assay (Eurofins DiscoverX), according to the manufacturer's instructions. Briefly, U2OS-DDR1 cells were seeded in white 384-well plates at a density of 5000 cells/well and incubated for 2 hours at 37° C. and 5% CO2. Cells were then treated with compounds at different concentrations and incubated for 30 minutes, before stimulation with bovine Type II Collagen 20 μg/ml and incubation overnight at 37° C. and 5% CO2. PathHunter Detection Reagents were prepared according to the protocol provided by DiscoverX and 20 μl/well of this mix were added to each well. After incubating the plates for 1 hour at room temperature in the dark, luminescence signal was acquired with a plate reader. Raw data were normalized to vehicle control (0% for normalization) and positive control (100% for normalization; cells treated with 20 μg/ml collagen II) and IC50 parameters were calculated in GraphPad Prism 8.0 software, using sigmoidal dose-response curve fitting with variable slope.

Turning to `O=C(Nc1cccc(OC(F)(F)F)c1)c1ccc(F)c(CNc2cnc3[nH]ccc3c2)c1` [Example 38, 3-(((1H-pyrrolo[2,3-b]pyridin-5-yl)amino)methyl)-4-fluoro-N-(3-(trifluoromethoxy)phenyl)benzamide], the inhibition constant Ki in test [1] and in test [2] was below 30 nM in each case. In addition, the values for the IC50 in test [3] and in test [4] were 10 to 15 nM and below 10 nM, respectively.
